Experimental data from US7398161B2, “Sampling method and sampling device, and logD measuring method and logD measuring system” (Banyu Pharmaceutical Co., Ltd., priority 2004, dated 2008).

Columns and labels:
[1] = J. Med. Chem. 2001, 44, 2490-2497; cited from earlier work
[2] = logD measurement by sampling of octanol/buffer two-layer sample with plug liquid, HPLC and mass spectrometer; conditions: octanol/buffer solution
[3] = physchem

logD [2] | logD [3] | SMILES | logD, Literature value [1] | logD, Measured value ([2]; average of three measurements (only one measurement for amiodarone))
– | 2.3 | COc1ccc([C@@H]2Sc3ccccc3N(CCN(C)C)C(=O)[C@@H]2OC(C)=O)cc1 [Diltiazem] | 2.06 | –
– | 0.3 | COCCc1ccc(OCC(O)CNC(C)C)cc1 (stereo not drawn) [Metoprolol] | – | –
-1.9 | – | CC(C)(C)NCC(O)c1cc(O)cc(O)c1 (stereo not drawn) [Terbutaline] | −1.35 | –
– | 5.2 | c1ccc(-c2ccc(C(c3ccccc3)n3ccnc3)cc2)cc1 (stereo not drawn) [bifonazole] | 4.77 | –
– | 3.9 | C[C@]12CC[C@@H]3c4ccc(O)cc4CC[C@H]3[C@@H]1CC[C@@H]2O [estradiol] | – | –

The next lines start with the compound.

SMILES | logD [2] | logD [3] | logD, Literature value [1] | logD, Measured value ([2]; average of three measurements (only one measurement for amiodarone))
C=CCc1ccccc1OCC(O)CNC(C)C (stereo not drawn) [Alprenolol] | 1.2 | – | 0.97 | –
NC(=O)N1c2ccccc2C=Cc2ccccc21 [Carbamazepine] | – | 1.8 | 2.19 | –
CN(C)CCCN1c2ccccc2Sc2ccc(Cl)cc21 [Chlorpromazine] | – | 3.5 | – | –
C[C@@H]1C[C@H]2[C@@H]3CCC4=CC(=O)C=C[C@]4(C)[C@@]3(F)[C@@H](O)C[C@]2(C)[C@@]1(O)C(=O)CO [Dexamethason] | – | – | 1.83 | 1.9
